Laboratory results: patent US20210154190A1, “SHP2 INHIBITOR COMPOSITIONS AND METHODS FOR TREATING CANCER” (Revolution Medicines, Inc., priority 2018, published 2021)

Tests used:
[1] = target: T1, SHP2 WT (Homo sapiens, UniProt Q06124); test: EGF-induced pERK AlphaLISA in T-REx-293-SHP2 cells, WT; type: cell-based; settings: Variant WT
T1 construct: expressed in transfected cells; host or cells: Flp-In T-REx-293 (T-REx-293-SHP2)
Experimental: (§1) An experimental system was creating to test the activity of SHP2 mutants on an isogenic background (FIG. 6). The Flp-In T-REx-293 cell line was obtained from Gibco® and cultivated in high glucose DMEM™ containing 2 mM L-glutamine (Hyclone®), supplemented with 10% FBS (Hyclone®), 1% penicillin/streptomycin (Gibco®), 100 μg/mL Zeocin™ (Gibco®), and 15 μg/mL blasticidin (Gibco®) in a humidified cell culture incubator at 37° C., 5% CO2.
(§2) Wild type or mutant SHP2 variants were synthesized and subcloned into the pcDNA5/FRT/TO vector (ThermoFisher). Plasmids were co-transfected with the pOG44 Flp recombinase expression plasmid (ThermoFisher®) into Flp-In T-REx-293 cells using X-tremegene 9 DNA transfection reagent (Sigma®), according to the manufacturer's instructions. […]
(§3) For the final 5 minutes of drug treatment, cells were stimulated with 50 ng/mL Epidermal Growth Factor (Sigma®). […] Samples were read using an EnVision Multilabel Plate Reader (Perkin Elmer®) using standard AlphaLISA settings. Assay data was plotted and EC50 values were determined using four-parameter concentration-response model in GraphPad Prism 7. […]

[2] = target: T2, SHP2 E76K (Homo sapiens, UniProt Q06124, E76K); test: EGF-induced pERK AlphaLISA in T-REx-293-SHP2 cells, E76K; type: cell-based; settings: Variant E76K
T2 construct: expressed in transfected cells; host or cells: Flp-In T-REx-293 (T-REx-293-SHP2)
Experimental: as §1, §2, §3

[3] = target: T3, SHP2 D61G (Homo sapiens, UniProt Q06124, D61G); test: EGF-induced pERK AlphaLISA in T-REx-293-SHP2 cells, D61G; type: cell-based; settings: Variant D61G
T3 construct: expressed in transfected cells; host or cells: Flp-In T-REx-293 (T-REx-293-SHP2)
Experimental: as §1, §2, §3

[4] = target: T4, SHP2 S189A (Homo sapiens, UniProt Q06124, S189A); test: EGF-induced pERK AlphaLISA in T-REx-293-SHP2 cells, S189A; type: cell-based; settings: Variant S189A
T4 construct: expressed in transfected cells; host or cells: Flp-In T-REx-293 (T-REx-293-SHP2)
Experimental: as §1, §2, §3

[5] = target: T5, SHP2 L262R (Homo sapiens, UniProt Q06124, L262R); test: EGF-induced pERK AlphaLISA in T-REx-293-SHP2 cells, L262R; type: cell-based; settings: Variant L262R
T5 construct: expressed in transfected cells; host or cells: Flp-In T-REx-293 (T-REx-293-SHP2)
Experimental: as §1, §2, §3

[6] = target: T6, SHP2 P491S (Homo sapiens, UniProt Q06124, P491S); test: EGF-induced pERK AlphaLISA in T-REx-293-SHP2 cells, P491S; type: cell-based; settings: Variant P491S
T6 construct: expressed in transfected cells; host or cells: Flp-In T-REx-293 (T-REx-293-SHP2)
Experimental: as §1, §2, §3

[7] = target: T7, SHP2 F285S (Homo sapiens, UniProt Q06124, F285S); test: EGF-induced pERK AlphaLISA in T-REx-293-SHP2 cells, F285S; type: cell-based; settings: Variant F285S
T7 construct: expressed in transfected cells; host or cells: Flp-In T-REx-293 (T-REx-293-SHP2)
Experimental: as §1, §2, §3

[8] = target: T8, SHP2 S502P (Homo sapiens, UniProt Q06124, S502P); test: EGF-induced pERK AlphaLISA in T-REx-293-SHP2 cells, S502P; type: cell-based; settings: Variant S502P
T8 construct: expressed in transfected cells; host or cells: Flp-In T-REx-293 (T-REx-293-SHP2)
Experimental: as §1, §2, §3

[9] = target: T9, SHP2 G60V (Homo sapiens, UniProt Q06124, G60V); test: EGF-induced pERK AlphaLISA in T-REx-293-SHP2 cells, G60V; type: cell-based; settings: Variant G60V
T9 construct: expressed in transfected cells; host or cells: Flp-In T-REx-293 (T-REx-293-SHP2)
Experimental: as §1, §2, §3

[10] = target: T10, SHP2 G503V (Homo sapiens, UniProt Q06124, G503V); test: EGF-induced pERK AlphaLISA in T-REx-293-SHP2 cells, G503V; type: cell-based; settings: Variant G503V
T10 construct: expressed in transfected cells; host or cells: Flp-In T-REx-293 (T-REx-293-SHP2)
Experimental: as §1, §2, §3

[11] = target: T11, SHP2 T73I (Homo sapiens, UniProt Q06124, T73I); test: EGF-induced pERK AlphaLISA in T-REx-293-SHP2 cells, T73I; type: cell-based; settings: Variant T73I
T11 construct: expressed in transfected cells; host or cells: Flp-In T-REx-293 (T-REx-293-SHP2)
Experimental: as §1, §2, §3

[12] = target: T12, SHP2 Q506P (Homo sapiens, UniProt Q06124, Q506P); test: EGF-induced pERK AlphaLISA in T-REx-293-SHP2 cells, Q506P; type: cell-based; settings: Variant Q506P
T12 construct: expressed in transfected cells; host or cells: Flp-In T-REx-293 (T-REx-293-SHP2)
Experimental: as §1, §2, §3

[13] = target: T13, SHP2 T253M/Q257L (Homo sapiens, UniProt Q06124, Q257L/T253M); test: SHP2 allosteric inhibition assay (DiFMUP), T253M/Q257L; type: biochemical; design: expressed in transfected cells; settings: Variant T253M/Q257L
T13 sequence (Q06124 1-593 T253M/Q257L): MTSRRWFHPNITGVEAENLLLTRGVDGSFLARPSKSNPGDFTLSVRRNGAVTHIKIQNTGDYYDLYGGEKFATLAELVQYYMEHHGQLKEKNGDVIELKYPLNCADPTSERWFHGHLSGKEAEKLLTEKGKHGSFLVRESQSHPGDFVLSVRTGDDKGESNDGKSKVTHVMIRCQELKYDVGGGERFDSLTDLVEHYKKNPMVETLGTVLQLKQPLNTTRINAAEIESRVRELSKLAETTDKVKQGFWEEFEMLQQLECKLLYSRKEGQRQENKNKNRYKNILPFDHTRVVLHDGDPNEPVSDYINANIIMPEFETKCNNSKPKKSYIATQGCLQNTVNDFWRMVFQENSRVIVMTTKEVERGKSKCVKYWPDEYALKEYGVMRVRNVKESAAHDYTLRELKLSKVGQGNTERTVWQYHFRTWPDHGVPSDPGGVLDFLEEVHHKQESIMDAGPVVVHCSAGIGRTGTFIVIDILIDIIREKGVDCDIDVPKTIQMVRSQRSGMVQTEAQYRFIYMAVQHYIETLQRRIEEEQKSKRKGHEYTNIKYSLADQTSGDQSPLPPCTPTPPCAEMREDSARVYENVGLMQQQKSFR

[14] = target: T13, SHP2 T253M/Q257L; test: EGF-induced pERK AlphaLISA in T-REx-293-SHP2 cells, T253M/Q257L; type: cell-based; design: expressed in transfected cells; host or cells: Flp-In T-REx-293 (T-REx-293-SHP2)
Experimental: as §1, §2, §3

Cc1nc(N2CCC3(CC2)CO[C@@H](C)[C@H]3N)c(CO)nc1-c1cccc(Cl)c1Cl [Compound B]
Cellular sensitivity [1]: yes (Sensitive if IC50 < 2000 nM)
Cellular sensitivity [2]: no (Sensitive if IC50 < 2000 nM)
Cellular sensitivity [3]: yes (Sensitive if IC50 < 2000 nM)
Cellular sensitivity [4]: yes (Sensitive if IC50 < 2000 nM)
Cellular sensitivity [5]: yes (Sensitive if IC50 < 2000 nM)
Cellular sensitivity [6]: no (Sensitive if IC50 < 2000 nM)
Cellular sensitivity [7]: yes (Sensitive if IC50 < 2000 nM)
Cellular sensitivity [8]: yes (Sensitive if IC50 < 2000 nM)
Cellular sensitivity [9]: no (Sensitive if IC50 < 2000 nM)
Cellular sensitivity [10]: no (Sensitive if IC50 < 2000 nM)
Cellular sensitivity [11]: yes (Sensitive if IC50 < 2000 nM)
Cellular sensitivity [12]: yes (Sensitive if IC50 < 2000 nM)
Biochemical sensitivity [13]: no (Sensitive if IC50 < 2000 nM)
inhibition of engineered double mutant in the Compound B binding site ([14]; T253M/Q257L, cellular pERK): insensitive to inhibition
Cellular sensitivity ([14]; Variant T253M/Q257L): no (Sensitive if IC50 < 2000 nM)
